According to ChEMBL document CHEMBL1130668, “Synthesis and evaluation of paclitaxel C7 derivatives: solution phase synthesis of combinatorial libraries” (1998):

Columns and labels:
MCF7 [1] = assay: Effect on microtubule assembly in MCF-7 cells, compared to paclitaxel (0.3 uM), given as ratio of respective ED50; format: functional, Homo sapiens
[2] = Cytotoxicity activity was measured against human breast cancer cell line MCF-7 with respect to ED50 of paclitaxel (2 nM); format: functional, MCF7
[3] = Cytotoxicity activity was measured against resistant human breast cancer cell line MCF-7 with respect to ED50 of paclitaxel (2200-3700 nM); format: functional, MCF7
MCF7 [4] = assay: Cytotoxicity activity was measured against human breast cancer cell line MCF-7; Did not inhibit proliferation at maximum concentration tested; format: functional; conditions: read-out: ED50 (the source's name)
MCF7 [5] = assay: Cytotoxicity activity was measured against resistant human breast cancer cell line MCF-7; Did not inhibit proliferation at maximum concentration tested; format: functional; conditions: read-out: ED50 (the source's name)

CC(=O)O[C@H]1C(=O)[C@]2(C)[C@@H](OC(C)=O)C[C@H]3OC[C@@]3(OC(C)=O)[C@H]2[C@H](OC(=O)c2ccccc2)[C@]2(O)C[C@H](OC(=O)[C@H](O)[C@@H](NC(=O)c3ccccc3)c3ccccc3)C(C)=C1C2(C)C [PACLITAXEL C7 ACETYLCARBOXYLIC ACID ESTER]
Ratio (MCF7 [1]): 0.7
Ratio [2]: 8
Ratio [3]: 0.7

CC(=O)O[C@H]1C(=O)[C@]2(C)[C@@H](OC(=O)c3ccc(Cl)c(Cl)c3)C[C@H]3OC[C@@]3(OC(C)=O)[C@H]2[C@H](OC(=O)c2ccccc2)[C@]2(O)C[C@H](OC(=O)[C@H](O)[C@@H](NC(=O)c3ccccc3)c3ccccc3)C(C)=C1C2(C)C
Ratio (MCF7 [1]): 24
EC50 (MCF7 [4]): > 80 nM
EC50 (MCF7 [5]): > 5000 nM

CC(=O)O[C@H]1C(=O)[C@]2(C)[C@@H](OC(=O)c3cccnc3C)C[C@H]3OC[C@@]3(OC(C)=O)[C@H]2[C@H](OC(=O)c2ccccc2)[C@]2(O)C[C@H](OC(=O)[C@H](O)[C@@H](NC(=O)c3ccccc3)c3ccccc3)C(C)=C1C2(C)C
Ratio (MCF7 [1]): 32
EC50 (MCF7 [4]): > 80 nM
EC50 (MCF7 [5]): > 5000 nM

CC(=O)O[C@H]1C(=O)[C@]2(C)[C@@H](OC(=O)c3ccc([N+](=O)[O-])o3)C[C@H]3OC[C@@]3(OC(C)=O)[C@H]2[C@H](OC(=O)c2ccccc2)[C@]2(O)C[C@H](OC(=O)[C@H](O)[C@@H](NC(=O)c3ccccc3)c3ccccc3)C(C)=C1C2(C)C
Ratio (MCF7 [1]): 8.7
Ratio [2]: 12
EC50 (MCF7 [5]): > 5000 nM

CC(=O)O[C@H]1C(=O)[C@]2(C)[C@@H](OC(=O)C3CCCC3)C[C@H]3OC[C@@]3(OC(C)=O)[C@H]2[C@H](OC(=O)c2ccccc2)[C@]2(O)C[C@H](OC(=O)[C@H](O)[C@@H](NC(=O)c3ccccc3)c3ccccc3)C(C)=C1C2(C)C [PACLITAXEL C7 CYCLOPENTANECARBOXYLIC ACID ESTER]
Ratio (MCF7 [1]): 1
Ratio [2]: 37
Ratio [3]: 1.3

CC(=O)O[C@H]1C(=O)[C@]2(C)[C@@H](OC(=O)c3ccc(Cl)cc3)C[C@H]3OC[C@@]3(OC(C)=O)[C@H]2[C@H](OC(=O)c2ccccc2)[C@]2(O)C[C@H](OC(=O)[C@H](O)[C@@H](NC(=O)c3ccccc3)c3ccccc3)C(C)=C1C2(C)C
Ratio (MCF7 [1]): 13
EC50 (MCF7 [4]): > 80 nM
Ratio [3]: 1.6

CC(=O)O[C@H]1C(=O)[C@]2(C)[C@@H](OC(=O)c3ccco3)C[C@H]3OC[C@@]3(OC(C)=O)[C@H]2[C@H](OC(=O)c2ccccc2)[C@]2(O)C[C@H](OC(=O)[C@H](O)[C@@H](NC(=O)c3ccccc3)c3ccccc3)C(C)=C1C2(C)C
Ratio (MCF7 [1]): 22
Ratio [2]: 27
Ratio [3]: 1

CC(=O)O[C@H]1C(=O)[C@]2(C)[C@@H](OC(=O)c3cccn3C)C[C@H]3OC[C@@]3(OC(C)=O)[C@H]2[C@H](OC(=O)c2ccccc2)[C@]2(O)C[C@H](OC(=O)[C@H](O)[C@@H](NC(=O)c3ccccc3)c3ccccc3)C(C)=C1C2(C)C
Ratio (MCF7 [1]): 8.3
EC50 (MCF7 [4]): > 80 nM
Ratio [3]: 1.2

CC(=O)OCC(=O)O[C@H]1C[C@H]2OC[C@@]2(OC(C)=O)[C@H]2[C@H](OC(=O)c3ccccc3)[C@]3(O)C[C@H](OC(=O)[C@H](O)[C@@H](NC(=O)c4ccccc4)c4ccccc4)C(C)=C([C@@H](OC(C)=O)C(=O)[C@]12C)C3(C)C [PACLITAXEL C7 ACETOXYACETIC ACID ESTER]
Ratio (MCF7 [1]): 1.7
Ratio [2]: 17
Ratio [3]: 1.8

CC(=O)O[C@H]1C(=O)[C@]2(C)[C@@H](OC(=O)C(C)(C)C)C[C@H]3OC[C@@]3(OC(C)=O)[C@H]2[C@H](OC(=O)c2ccccc2)[C@]2(O)C[C@H](OC(=O)[C@H](O)[C@@H](NC(=O)c3ccccc3)c3ccccc3)C(C)=C1C2(C)C [PACLITAXEL C7 TRIMETHYLACETIC ACID ESTER]
Ratio (MCF7 [1]): 8.3
Ratio [2]: 3
Ratio [3]: 1.5

CC(=O)O[C@H]1C(=O)[C@]2(C)[C@@H](OC(=O)CC#N)C[C@H]3OC[C@@]3(OC(C)=O)[C@H]2[C@H](OC(=O)c2ccccc2)[C@]2(O)C[C@H](OC(=O)[C@H](O)[C@@H](NC(=O)c3ccccc3)c3ccccc3)C(C)=C1C2(C)C [PACLITAXEL C7 CYANOACETIC ACID ESTER]
Ratio (MCF7 [1]): 1.3
EC50 (MCF7 [4]): > 5000 nM
Ratio [2]: 8

CC(=O)O[C@H]1C(=O)[C@]2(C)[C@@H](OC(=O)c3ccc(C)cc3)C[C@H]3OC[C@@]3(OC(C)=O)[C@H]2[C@H](OC(=O)c2ccccc2)[C@]2(O)C[C@H](OC(=O)[C@H](O)[C@@H](NC(=O)c3ccccc3)c3ccccc3)C(C)=C1C2(C)C
Ratio (MCF7 [1]): 25
Ratio [2]: 31
Ratio [3]: 0.9

COCC(=O)O[C@H]1C[C@H]2OC[C@@]2(OC(C)=O)[C@H]2[C@H](OC(=O)c3ccccc3)[C@]3(O)C[C@H](OC(=O)[C@H](O)[C@@H](NC(=O)c4ccccc4)c4ccccc4)C(C)=C([C@@H](OC(C)=O)C(=O)[C@]12C)C3(C)C [PACLITAXEL C7 METHOXYACETIC ACID ESTER]
Ratio (MCF7 [1]): 1
Ratio [2]: 14
Ratio [3]: 1.3

COc1ccc(C(=O)O[C@H]2C[C@H]3OC[C@@]3(OC(C)=O)[C@H]3[C@H](OC(=O)c4ccccc4)[C@]4(O)C[C@H](OC(=O)[C@H](O)[C@@H](NC(=O)c5ccccc5)c5ccccc5)C(C)=C([C@@H](OC(C)=O)C(=O)[C@]23C)C4(C)C)cc1
Ratio (MCF7 [1]): 22
EC50 (MCF7 [4]): > 80 nM
Ratio [3]: 2.2

CC(=O)O[C@H]1C(=O)[C@]2(C)[C@@H](OC(=O)c3ccccc3)C[C@H]3OC[C@@]3(OC(C)=O)[C@H]2[C@H](OC(=O)c2ccccc2)[C@]2(O)C[C@H](OC(=O)[C@H](O)[C@@H](NC(=O)c3ccccc3)c3ccccc3)C(C)=C1C2(C)C [PACLITAXEL C7 BENZOIC ACID ESTER]
Ratio (MCF7 [1]): 8.3
Ratio [2]: 14
Ratio [3]: 1.1

CCCCC(=O)O[C@H]1C[C@H]2OC[C@@]2(OC(C)=O)[C@H]2[C@H](OC(=O)c3ccccc3)[C@]3(O)C[C@H](OC(=O)[C@H](O)[C@@H](NC(=O)c4ccccc4)c4ccccc4)C(C)=C([C@@H](OC(C)=O)C(=O)[C@]12C)C3(C)C [PACLITAXEL C7 VALERIC ACID ESTER]
Ratio (MCF7 [1]): 0.7
Ratio [2]: 10
Ratio [3]: 0.4

CSCC(=O)O[C@H]1C[C@H]2OC[C@@]2(OC(C)=O)[C@H]2[C@H](OC(=O)c3ccccc3)[C@]3(O)C[C@H](OC(=O)[C@H](O)[C@@H](NC(=O)c4ccccc4)c4ccccc4)C(C)=C([C@@H](OC(C)=O)C(=O)[C@]12C)C3(C)C [PACLITAXEL C7 METHYLTHIOACETIC ACID ESTER]
Ratio (MCF7 [1]): 0.7
Ratio [2]: 10
Ratio [3]: 0.5

CC(=O)O[C@H]1C(=O)[C@]2(C)[C@@H](OC(=O)C3CC3)C[C@H]3OC[C@@]3(OC(C)=O)[C@H]2[C@H](OC(=O)c2ccccc2)[C@]2(O)C[C@H](OC(=O)[C@H](O)[C@@H](NC(=O)c3ccccc3)c3ccccc3)C(C)=C1C2(C)C [PACLITAXEL C7 CYCLOPROPANECARBOXYLIC ACID ESTER]
Ratio (MCF7 [1]): 22
Ratio [2]: 35
EC50 (MCF7 [5]): > 5000 nM

CC(=O)O[C@H]1C(=O)[C@]2(C)[C@@H](OC(=O)c3ccsc3)C[C@H]3OC[C@@]3(OC(C)=O)[C@H]2[C@H](OC(=O)c2ccccc2)[C@]2(O)C[C@H](OC(=O)[C@H](O)[C@@H](NC(=O)c3ccccc3)c3ccccc3)C(C)=C1C2(C)C
Ratio (MCF7 [1]): 1.7
EC50 (MCF7 [4]): > 80 nM
Ratio [3]: 1.3
